# Test system: Plasmodium berghei
# Assay: Luciferase/luciferin-expressing antifolate-resistant parasites were used to infect a culture of HepG2 cells that were pre-incubated with compounds. Infected hepatocytes emit light due to the luciferase reaction. Assay results are presented as the percent inhibition of light emission compared to control. […]
# Assay type: functional
# Conditions: sporozoite; for IC90: read-out: LUCIFERASE INFECTION ASSAY - IC90
SMILES,IC90 [µM],also measured
CC(=O)c1c(C)[nH]c(C(=O)Nc2ccc(C)c(S(=O)(=O)Nc3ccc(C)cc3C)c2)c1C,> 10,"IC50 (HEPG2TOX_HILL_SLOPE 7.64, HEPG2TOX_R_SQUARED 0.623, PBLUC_HILL_SLOPE 8.53, PBLUC_R_SQUARED 0.404, read-out: LUCIFERASE INFECTION ASSAY - IC50): 9.43 µM"
NC(Cc1ccccc1)c1csc(Nc2ccc(C(=O)c3ccccc3)cc2)n1 (configuration not stated),1.15,"IC50 (HEPG2TOX_HILL_SLOPE 7.62, HEPG2TOX_R_SQUARED 0.882, PBLUC_HILL_SLOPE 15.6, PBLUC_R_SQUARED 0.562, read-out: LUCIFERASE INFECTION ASSAY - IC50): 1 µM"
FC(F)(F)c1nc2ccccc2nc1N/N=C/c1ccc(Cl)cc1,9.28,"IC50 (HEPG2TOX_HILL_SLOPE 7.63, HEPG2TOX_R_SQUARED 0.926, PBLUC_HILL_SLOPE 14.9, PBLUC_R_SQUARED 0.207, read-out: LUCIFERASE INFECTION ASSAY - IC50): 8 µM"
CCC(C)(C)c1ccc(Oc2ccc(NC(=O)Nc3ccccc3OC)cc2)cc1,5.8,"IC50 (HEPG2TOX_HILL_SLOPE 7.52, 1.98, HEPG2TOX_R_SQUARED 0.307, 0.635, PBLUC_HILL_SLOPE 2.78, 0.762, PBLUC_R_SQUARED 0.525, 0.659, read-out: LUCIFERASE INFECTION ASSAY - IC50): 1.08 µM"
CCOC(=O)c1ccc(N2C(=O)c3ccccc3C(C=NNC(=O)Cc3ccc(F)cc3)C2=O)cc1 (configuration not stated),> 10,"IC50 (HEPG2TOX_HILL_SLOPE 7.51, HEPG2TOX_R_SQUARED 0.875, PBLUC_HILL_SLOPE 2.71, PBLUC_R_SQUARED 0.377, read-out: LUCIFERASE INFECTION ASSAY - IC50): 8.78 µM"
CC(C)(C)c1ccc(-c2nnc(SCC(=O)Nc3sccc3C(N)=O)n2C2CCCC2)cc1,> 10,"IC50 (HEPG2TOX_HILL_SLOPE 7.51, 0.572, HEPG2TOX_R_SQUARED 0.693, 0.490, PBLUC_HILL_SLOPE 1.93, PBLUC_R_SQUARED 0.568, read-out: LUCIFERASE INFECTION ASSAY - IC50): 4.92 µM"
COC(=O)c1cnc(Sc2ccc(C(F)(F)F)cn2)c([N+](=O)[O-])c1,> 9.18,"IC50 (HEPG2TOX_HILL_SLOPE 7.53, HEPG2TOX_R_SQUARED 0.667, PBLUC_HILL_SLOPE 5.12, PBLUC_R_SQUARED 0.221, read-out: LUCIFERASE INFECTION ASSAY - IC50): > 9.18 µM"
CN1/C(=C\C(=O)CSc2nnc3c(n2)[nH]c2ccccc23)C(C)(C)c2ccccc21,> 10,"IC50 (HEPG2TOX_HILL_SLOPE 7.55, HEPG2TOX_R_SQUARED 0.316, read-out: LUCIFERASE INFECTION ASSAY - IC50): > 10 µM"
COc1cc(-c2cnc3cnc(-c4ccccc4Cl)cn23)cc(OC)c1OC,> 8.34,"IC50 (HEPG2TOX_HILL_SLOPE 7.56, HEPG2TOX_R_SQUARED 0.703, PBLUC_HILL_SLOPE 2.2, PBLUC_R_SQUARED 0.686, read-out: LUCIFERASE INFECTION ASSAY - IC50): 6.11 µM"
Cc1cc(N2CCN(C(=O)c3cc(C4CC4)nn3-c3ccccc3)CC2)nc(C(C)C)n1,> 10,"IC50 (HEPG2TOX_HILL_SLOPE 7.58, HEPG2TOX_R_SQUARED 0.717, PBLUC_HILL_SLOPE 1.92, PBLUC_R_SQUARED 0.299, read-out: LUCIFERASE INFECTION ASSAY - IC50): 4.83 µM"
Cc1c(C(=O)N2CCN(c3cc(C#N)ccn3)CC2)[nH]c2c1C(=O)CCC2,> 10,"IC50 (HEPG2TOX_HILL_SLOPE 7.54, HEPG2TOX_R_SQUARED 0.56, read-out: LUCIFERASE INFECTION ASSAY - IC50): > 10 µM"
O=C(c1cccs1)N1CCN(Cc2csc(C3CCCCC3)n2)CC1,> 10,"IC50 (HEPG2TOX_HILL_SLOPE 7.59, HEPG2TOX_R_SQUARED 0.857, PBLUC_HILL_SLOPE 2.36, PBLUC_R_SQUARED 0.0477, read-out: LUCIFERASE INFECTION ASSAY - IC50): 5.47 µM"
Cc1cc(C)c(S(=O)(=O)N(Cc2cccc3ccccc23)c2c(C)n(C)n(-c3ccccc3)c2=O)c(C)c1,9.71,"IC50 (HEPG2TOX_HILL_SLOPE 7.62, HEPG2TOX_R_SQUARED 0.586, PBLUC_HILL_SLOPE 20.2, PBLUC_R_SQUARED 0.47, read-out: LUCIFERASE INFECTION ASSAY - IC50): 8.71 µM"
Cc1cc(C)c(C)c(S(=O)(=O)N2CCC(C(=O)Nc3nnc(-c4ccccc4)o3)CC2)c1C,> 10,"IC50 (HEPG2TOX_HILL_SLOPE 7.53, HEPG2TOX_R_SQUARED 0.782, PBLUC_HILL_SLOPE 3.42, PBLUC_R_SQUARED 0.39, read-out: LUCIFERASE INFECTION ASSAY - IC50): 6.89 µM"
CCOC(=O)c1c(C)oc(-c2ccc(Cl)cc2)c1S(=O)(=O)Nc1cccc(C)c1,> 7.61,"IC50 (HEPG2TOX_HILL_SLOPE 7.66, HEPG2TOX_R_SQUARED 0.177, read-out: LUCIFERASE INFECTION ASSAY - IC50): > 7.61 µM"
COCCNc1cc(C)nc2c(-c3ccc(C)cc3)c(C)nn12,> 10.6,"IC50 (HEPG2TOX_HILL_SLOPE 7.65, HEPG2TOX_R_SQUARED 0.721, PBLUC_HILL_SLOPE 1.1, PBLUC_R_SQUARED 0.545, read-out: LUCIFERASE INFECTION ASSAY - IC50): 3.65 µM"

SMILES,IC90 [µM],also measured
COc1ccccc1-c1cc(-c2cccc(C(F)(F)F)c2)cnc1N,> 9.58,"IC50 (HEPG2TOX_HILL_SLOPE 7.68, HEPG2TOX_R_SQUARED 0.737, read-out: LUCIFERASE INFECTION ASSAY - IC50): > 9.58 µM"
COc1ccc(N2C(=O)C(=O)N(Cc3c(C)cc(C(C)(C)C)cc3C)C2=O)cc1,7.85,"IC50 (HEPG2TOX_HILL_SLOPE 7.7, HEPG2TOX_R_SQUARED 0.735, PBLUC_HILL_SLOPE 4.71, PBLUC_R_SQUARED 0.498, read-out: LUCIFERASE INFECTION ASSAY - IC50): 4.92 µM"
Cc1cccc(-n2cc(-c3ccccc3)c3c(N4CCN(C)CC4)ncnc32)c1,> 10,"IC50 (HEPG2TOX_HILL_SLOPE 7.66, HEPG2TOX_R_SQUARED 0.38, PBLUC_HILL_SLOPE 2.7, PBLUC_R_SQUARED 0.572, read-out: LUCIFERASE INFECTION ASSAY - IC50): 6.64 µM"
CC(Sc1nnc(-c2ccc(C(C)(C)C)cc2)o1)C(=O)Nc1ncc(Cl)cc1Cl (configuration not stated),3.61,"IC50 (HEPG2TOX_HILL_SLOPE 7.53, HEPG2TOX_R_SQUARED 0.526, PBLUC_HILL_SLOPE 15.5, PBLUC_R_SQUARED 0.267, read-out: LUCIFERASE INFECTION ASSAY - IC50): 3.13 µM"
COc1cccc(Nc2nccc3nc(-c4ccc(F)c(F)c4)[nH]c23)c1,> 10,"IC50 (HEPG2TOX_HILL_SLOPE 7.52, HEPG2TOX_R_SQUARED 0.793, PBLUC_HILL_SLOPE 2.32, PBLUC_R_SQUARED 0.606, read-out: LUCIFERASE INFECTION ASSAY - IC50): 4.06 µM"
Cc1cc(C(=O)CSc2nnc(C3CC3)[nH]2)c(C)n1-c1cccc(C(F)(F)F)c1,> 10,"IC50 (HEPG2TOX_HILL_SLOPE 7.7, HEPG2TOX_R_SQUARED 0.0445, PBLUC_HILL_SLOPE 1.16, PBLUC_R_SQUARED 0.631, read-out: LUCIFERASE INFECTION ASSAY - IC50): 3.51 µM"
CCc1ccc2nc(NC(=O)c3nccnc3N)sc2c1,> 10,"IC50 (HEPG2TOX_HILL_SLOPE 7.58, HEPG2TOX_R_SQUARED 0.761, PBLUC_HILL_SLOPE 15.5, PBLUC_R_SQUARED 0.446, read-out: LUCIFERASE INFECTION ASSAY - IC50): 9.33 µM"
O=C(Nc1cc(Cl)ccc1O)c1ccccc1CSc1ccc(Cl)cc1,7.79,"IC50 (HEPG2TOX_HILL_SLOPE 7.65, HEPG2TOX_R_SQUARED 0.733, PBLUC_HILL_SLOPE 11.9, PBLUC_R_SQUARED 0.0529, read-out: LUCIFERASE INFECTION ASSAY - IC50): 6.47 µM"
COc1ccc(N(Cc2c(C#N)c(C)nn2-c2ccccc2)S(=O)(=O)c2ccc(C)cc2)cc1,> 10,"IC50 (HEPG2TOX_HILL_SLOPE 7.62, HEPG2TOX_R_SQUARED 0.552, PBLUC_HILL_SLOPE 10, PBLUC_R_SQUARED 0.432, read-out: LUCIFERASE INFECTION ASSAY - IC50): 9.18 µM"
COc1ccc(Nc2ccn3ncc(-c4ccc(N(C)C)cc4)c3n2)cn1,5.31,"IC50 (HEPG2TOX_HILL_SLOPE 7.66, HEPG2TOX_R_SQUARED 0.327, PBLUC_HILL_SLOPE 65.7, PBLUC_R_SQUARED 0.275, read-out: LUCIFERASE INFECTION ASSAY - IC50): 5.14 µM"
CCN(CC)c1ccc(/C=C(\C#N)C(=O)Nc2cccc(S(=O)(=O)N3CCCCC3)c2)cc1,> 10,"IC50 (HEPG2TOX_HILL_SLOPE 7.51, HEPG2TOX_R_SQUARED 0.401, PBLUC_HILL_SLOPE 2.56, PBLUC_R_SQUARED 0.302, read-out: LUCIFERASE INFECTION ASSAY - IC50): 9.36 µM"
S=C(N/N=C/c1ccccn1)Nc1ccc(Cl)c(Cl)c1,> 10.1,"IC50 (HEPG2TOX_HILL_SLOPE 7.56, HEPG2TOX_R_SQUARED 0.274, PBLUC_HILL_SLOPE 6.84, PBLUC_R_SQUARED 0.4, read-out: LUCIFERASE INFECTION ASSAY - IC50): 7.65 µM"
Cc1ccc(Nc2ncccc2C(=O)Nc2nc3ccccc3[nH]2)c(C)c1,7.9,"IC50 (HEPG2TOX_HILL_SLOPE 7.67, HEPG2TOX_R_SQUARED 0.775, PBLUC_HILL_SLOPE 5.03, PBLUC_R_SQUARED 0.402, read-out: LUCIFERASE INFECTION ASSAY - IC50): 5.1 µM"
Cc1cnc(NC(=O)c2ccc(N(C)C3CCCCC3)cc2)s1,0.327,"IC50 (HEPG2TOX_HILL_SLOPE 7.67, HEPG2TOX_R_SQUARED 0.65, PBLUC_HILL_SLOPE 1.69, PBLUC_R_SQUARED 0.349, read-out: LUCIFERASE INFECTION ASSAY - IC50): 0.0892 µM"
O=C(Nc1cc(S(=O)(=O)c2ccccc2)cs1)c1ccc(Cl)cc1,5.49,"IC50 (HEPG2TOX_HILL_SLOPE 7.57, HEPG2TOX_R_SQUARED 0.801, PBLUC_HILL_SLOPE 3.36, PBLUC_R_SQUARED 0.445, read-out: LUCIFERASE INFECTION ASSAY - IC50): 2.85 µM"

# Source: ChEMBL document CHEMBL4483862, “Open-source discovery of chemical leads for next-generation chemoprotective antimalarials” (2018)
